Reference: US20100160402A1, “Bisbenzimidazoles as antimalarial agents” (priority 2007, published 2010)
Values joined by “and” are separate entries in the source; they are usually repeats but may differ in a detail not shown here. Identical values can stand only once. Like-named read-outs stand apart in the source and are kept apart here.

Columns and labels:
[1] = system: Plasmodium falciparum; experiment: In vitro drug screening model against Plasmodium falciparum (drug sensitivity assay, Malstat LDH read-out); format: cell-based; settings: for IC50: Plasmodium falciparum; for score: score in brackets after the IC50, scale not defined
Procedure: Malaria: In Vitro Drug Screening Model Against Plasmodium falciparum
Two strains of P. falciparum were used: 1/GHA strain (P. falGHA), derived from a Ghanese patient and chloroquine sensitive and 2/W-2 strain (P.falW2) from CDC/Indochina III and resistant to chloroquine, quinine, pyrimethamine, but susceptible to mefloquine. The strains were maintained in RPMI-1640 medium supplemented with 0.37 mM hypoxanthine, 25 mM Hepes, 25 mM NaHCO3, and 10% O+ human serum together with 2-4% washed human O+ erythrocytes (Adaptation of the procedures described by Trager, W.; Jensen J. B. Science 1976, 193, 673-677). All cultures and assays were conducted at 37° C. under an atmosphere of 4% CO2, 3% O2 and 93% N2.
Compound stock solutions were prepared in 100% DMSO at 20 mM or mg/ml (Concentrations are standard expressed in molar concentrations). The compounds were serially pre-diluted (2-fold or 4-fold) in DMSO followed by a further (intermediate) dilution in demineralized water to assure a final in-test DMSO concentration of <1%.
Assays were performed in sterile 96-well microtiter plates, each well containing 10 μl of the watery compound dilutions together with 190 μl of the malaria parasite inoculum (1% parasitaemia, 2% HCT). Parasite growth was compared to untreated-infected (100% growth) and uninfected-controls (0% growth). After 72 h incubation at 37° C., plates were frozen at −20° C. After thawing, 20 μl of each well was transferred into another plate together with 100 μl Malstat reagent (Lactate dehydrogenase (LDH)-test, according to Makler et al.: Am. J. Trop Med. Hyg, 48, 7339-741, 1993) and 20 μl of a 1/1 mixture of PES (phenazine ethosulfat, 0.1 mg/ml) and NBT (NitroBlue Tetrazolium Grade III, 2 mg/ml). The plates were kept out of light for 2 hours and change in color was measured spectrophotometrically at 655 nm. The results were expressed as % reduction in parasitaemia compared to control wells. For each compound, an IC50 was calculated.
The GHA strain was used. Compounds were tested at 5 concentrations (64-16-4-1 and 0.25 μM or μg/ml). […] Some of the compounds were evaluated in a secondary screening.
Additional strains (GHA, W2, D6, NF54) were included and the IC50-values were determined using an extended dose range (2-fold compound dilutions). Artesunate and chloroquine were included as reference drugs.

[2] = system: other strains of parasites; experiment: Activity against other strains of parasites (selectivity); format: cell-based
[3] = Table 2, P. falciparum, strain not given, 72 h incubation, read-out: IC50

IC50 [1, 3] [µg/mL] | melting point [°C] | SMILES | IC50 ([1]; 72 h) | score ([1]; Table 2) | activity against some other strains of parasites (selectivity compared to chloroquine) [2]
– | – | C[C@H]1[C@H](OC(=O)CCC(=O)O)O[C@@H]2O[C@@]3(C)CC[C@H]4[C@H](C)CC[C@@H]1[C@@]24OO3 [Artesunate, reference compound] | 5 nM | – | –
– | – | CCN(CC)CCCC(C)Nc1ccnc2cc(Cl)ccc12 (stereo not drawn) [Chloroquine, chloroquine, reference compound] | 50 nM and 0.04 µg/mL | – | –
16.6 | > 300 | c1ccc2[nH]c(-c3ccc(OCCCOc4ccc(-c5nc6ccccc6[nH]5)cc4)cc3)nc2c1 [Compound 1, 2,2′-[1,3-propanediylbis(oxy-1,4-phenylene)]bis-1H-benzimidazole] | – | 1 | –
– | > 300 | c1ccc2[nH]c(-c3ccc(OCCCCOc4ccc(-c5nc6ccccc6[nH]5)cc4)cc3)nc2c1 [Compound 2, 2,2′-[1,4-butanediylbis(oxy-1,4-phenylene)]bis-1H-benzimidazole] | – | – | –
0.49 | > 300 | c1ccc2[nH]c(-c3ccc(OCCCCCOc4ccc(-c5nc6ccccc6[nH]5)cc4)cc3)nc2c1 [Compound 3, 2,2′-[1,5-pentanediylbis(oxy-1,4-phenylene)]bis-1H-benzimidazole] | – | 3 | not active
– | > 300 | c1ccc2[nH]c(-c3ccc(OCCCCCCOc4ccc(-c5nc6ccccc6[nH]5)cc4)cc3)nc2c1 [Compound 4, 2,2′-[1,6-hexanediylbis(oxy-1,4-phenylene)]bis-1H-benzimidazole] | – | – | –
– | 298 to 301 | c1ccc2[nH]c(-c3ccc(OCCCCCCCOc4ccc(-c5nc6ccccc6[nH]5)cc4)cc3)nc2c1 [Compound 5, 2,2′-[1,7-heptanediylbis(oxy-1,4-phenylene)]bis-1H-benzimidazole] | – | – | –
3.91 | 240 to 243 | c1cc(OCCCCCOc2cccc(-c3nc4ccccc4[nH]3)c2)cc(-c2nc3ccccc3[nH]2)c1 [Compound 6, 2,2′-[1,5-pentanediylbis(oxy-1,3-phenylene)]bis-1H-benzimidazole] | – | 2 | –
8.31 | 190 to 193 | c1ccc(-c2nc3ccccc3[nH]2)c(OCCCCCOc2ccccc2-c2nc3ccccc3[nH]2)c1 [Compound 7, 2,2′-[1,5-pentanediylbis(oxy-1,2-phenylene)]bis-1H-benzimidazole] | – | 2 | –
